Test results from patent EP4108244A1, “SS-LACTAM ANTIBIOTIC WITH SIGNIFICANT ACTIVITY AGAINST CANCER E.G. COLON MALIGNANCIES” (priority 2021, dated 2022).
Several values for one entry are separate records, joined by “and”; a condition that tells them apart may be missing. Identical values can stand only once. Marks after values point to notes of the source that are not given here.

Experiments:
[1] = system: HCT-116 cells; experiment: MTT metabolic activity assay; format: cell-based, human; conditions: for effect of combination with 5-FU on the inhibition of metabolic activity induced by 5-FU (in words): 5-FU 16 µM and 24 µM, MER, AMP, PIP 10, 50, 100 µg/mL, BenP, FLU 5, 25, 50 µg/mL
[2] = system: DLD-1 cells; experiment: MTT metabolic activity assay; format: cell-based, human; conditions: 48 h post-treatment, 5-Fluorouracil 16µM
Experimental: MTT assay was used to assess the proliferation rate of HCT-116 and DLD-1 cells. In this assay the ability of metabolically active cells to convert tetrazolium salt into a blue formazan product is measured. The absorption of the dissolved formazan was quantified at 540 nm by an ELISA reader (Bio-Rad iMark Microplate Reader).
Cells were plated at 2^∗104cells/ml in 96-well plates and incubated overnight. […] Metabolic activity of the cells was studied using the MTT assay that measures the ability of metabolically active cells to convert tetrazolium salt into a blue formazan product, the absorbance of which is recorded at 540 nm by an ELISA reader (Bio-Rad iMark Microplate Reader).

[3] = system: Caco-2 cells; experiment: MTT metabolic activity assay; format: cell-based, human; conditions: Homo sapiens, 24 h post-treatment, 5-Fluorouracil 4µM, read-out: inhibition of proliferation (metabolic activity)
Experimental: (§1) Cells were plated at 2^∗104cells/ml in 96-well plates and incubated overnight. The following day, cells were treated in triplicate with Ceftazdime or 5-fluorouracil for 24-48 h, depending on the cell line used. Metabolic activity of the cells was studied using the MTT assay that measures the ability of metabolically active cells to convert tetrazolium salt into a blue formazan product, the absorbance of which is recorded at 540 nm by an ELISA reader (Bio-Rad iMark Microplate Reader).

[4] = system: RAW 264.7 cells; experiment: MTT metabolic activity assay on macrophages; format: cell-based, murine; conditions: RAW 264.7
Experimental: as §1

[5] = system: HCT-116 cells; experiment: Cell cycle distribution, propidium iodide staining; format: cell-based, human; conditions: for percentage of cells in G0/G1 / percentage of cells in G2/M / percentage of cells in Pre G1 / percentage of cells in S: CFT 100 µg/mL, CFP 50 µg/mL, 5-FU 8 µM, alone or combined, mean ± SE
Experimental: Propidium iodide (PI) staining was used to evaluate the effect of the different treatments on the cell cycle. […] Fixed cells, which were washed with PBS and incubated at 37 °C for 1 h with 50 µl RNase (1 mg/ml) (Sigma Aldrich, Germany), were stained for 15 minutes with PI (Molecular Probes, Eugene, Oregon, USA).

[6] = system: DLD-1 cells; experiment: Cell cycle distribution, propidium iodide staining; format: cell-based, human; conditions: CFT 100 µg/mL, CFP 50 µg/mL, 5-FU 16 µM, alone or combined, mean ± SE
Experimental: Propidium iodide (PI) staining was used to evaluate the effect of the different treatments on the cell cycle. […] 48 h and 72 h post-treatment, collected cells were fixed with ice-cold ethanol (70%) and stored at - 20 °C for at least 2 h. Fixed cells, which were washed with PBS and incubated at 37 °C for 1 h with 50 µl RNase (1 mg/ml) (Sigma Aldrich, Germany), were stained for 15 minutes with PI (Molecular Probes, Eugene, Oregon, USA). Cell cycle was monitored using BD FACSDiva™ and the percentage of cells in the different phases of the cell cycle (pre-Gi, G0/G1, S, and G2/M) phases was determined using BD FACSDiva™ Software.
Propidium iodide (PI) staining was used to evaluate the effect of the different treatments (Ceftazidime (100 µg/ml) or 5-Fluorouracil (16 µM)) on the cell cycle profile of DLD-1 cells. Briefly, DLD-1 cells were plated at 5^∗104/ml and treated for 48 h and 72 h. Collected cells were fixed with ice-cold ethanol (70%) and stored at -20°C for at least 2 h. Fixed cells, which were washed with PBS and incubated at 37°C for 1 h with 50 µl RNase (1 mg/ml) (Sigma Aldrich, Germany), were stained for 15 minutes with PI (Molecular Probes, Eugene, Oregon, USA). Cell cycle was monitored using BD FACSDiva™ and the percentage of cells in the different phases of the cell cycle (pre-Gi, G0/G1, S, and G2/M) phases was determined using BD FACSDiva™ Software.

[7] = system: DLD-1 cells; experiment: Caspase-3/7 activity assay; format: cell-based, human; conditions: 48 h and 72 h, 5-FU 16 µM, CFT 100 µg/ml
Experimental: (§2) Caspase-3/7 activity was measured 48 h and 72 h post-treatment according to the manufacturer's protocol (Caspase-Glo-3/7 Assay, Promega Corp, Madison, WI, USA). Briefly, equal volume from treated cells and caspase-3/7 mixture were incubated at room temperature for 3 h and the luminescence was measured by a microplate reader.
DLD-1 cells were treated with CFT (100 µg/ml) or 5-Fluorouracil (16 µM). Caspase-3/7 activity was measured 48 h and 72 h post-treatment according to the manufacturer's protocol (Caspase-Glo-3/7 Assay, Promega Corp, Madison, WI, USA). Briefly, equal volume from treated cells and caspase 3/7 mixture were incubated at room temperature for 3 h and the luminescence was measured by a microplate reader.

[8] = system: HCT-116 cells; experiment: Caspase-3/7 activity assay; format: cell-based, human; conditions: combined with 5-FU 8 µM, 48 and 72h, CFT 100 µg/ml, CFP 50 µg/ml
Experimental: as §2

[9] = system: DLD-1 cells; experiment: Antibiotics' uptake by the cells, LC-MS/MS; conditions: for Concentration of CFP, Lysate / Concentration of CFP, Supernatant: CFP 50 µg/ml alone or + 5-FU 16 µM
Experimental: (§3) This step was repeated three times and cell homogenate were vortexed at high-speed prior extraction. 40 µl from each supernatant and cell suspension were combined with 200 µl of internal standard working solution prepared in ice-cold methanol. Samples were then centrifuged and 100 µl of the supernatant were diluted with 400 µl water in glass vials prior analysis with LC-/MS/MS.

[10] = system: HCT-116 cells; experiment: Antibiotics' uptake by the cells, LC-MS/MS; conditions: for Concentration of CFP, Lysate / Concentration of CFP, Supernatant: HCT-116 cells, CFP 50 µg/ml alone or + 5-FU 8 µM
Experimental: as §3

[11] = Stability in media, LC-MS/MS; format: physicochemical; conditions: antibiotic alone (CFP 50 µg/mL, CFT 100 µg/mL)
Experimental: B) CFT (100 µg/ml) ± 5-FU (8 µM and 16 µM). P value (a) (between antibiotic alone and 5-FU (8 µM)); P value (b) (between antibiotic alone and 5-FU (16 µM)), n = 3.

SMILES: Cc1onc(-c2c(F)cccc2Cl)c1C(=O)N[C@@H]1C(=O)N2[C@@H]1SC(C)(C)[C@@H]2C(=O)O [FLU, flucloxacillin]
- effect of combination with 5-FU on the inhibition of metabolic activity induced by 5-FU (in words) [1]: does not affect the inhibition

SMILES: O=c1[nH]cc(F)c(=O)[nH]1 [5-FU, 5-fluorouracil]
- inhibitory effect vs. control untreated cells (metabolic activity) [2]: 18%
- inhibition at 4 µM [3]: 22%
- decrease of metabolic activity ([4]; 24 h of treatment): 80%
- metabolic activity of macrophages (in words) ([4]; 48 h post-treatment): sustained up to 48 h
- increase in the percentage of cells in the pre-G1 phase vs. control ([5]; 48 h): 3 fold
- percentage of cells in G0/G1 ([5]; 48 h): 48.4 ± 2.3^(a) %
- percentage of cells in G2/M ([5]; 48 h): 22.3 ± 2.9%
- percentage of cells in Pre G1 ([5]; 48 h): 16.9 ± 2.5^(a) %
- percentage of cells in S ([5]; 48 h): 10.6 ± 1.0%
- increase in the percentage of cells in the pre-G1 phase vs. control ([5]; 72 h): 8.2 fold
- percentage of cells in G0/G1 ([5]; 72 h): 39.0 ± 9.5^(a) %
- percentage of cells in G2/M ([5]; 72 h): 16.4 ± 2.4^(a) %
- percentage of cells in Pre G1 ([5]; 72 h): 36.7 ± 11.7^(a) %
- percentage of cells in S ([5]; 72 h): 6.6 ± 0.7%
- percentage of cells in G0/G1 ([6]; 48 h): 49.3 ± 4.4%
- percentage of cells in G2/M ([6]; 48 h): 10.3 ± 1.7^(a) %
- percentage of cells in Pre G1 ([6]; 48 h): 6.3 ± 2.3%
- percentage of cells in S ([6]; 48 h): 32.0 ± 6.1^(a) %
- percentage of cells in G0/G1 ([6]; 72 h): 69.4 ± 5.0%
- percentage of cells in G2/M ([6]; 72 h): 5.4 ± 2.7^(a) %
- percentage of cells in Pre G1 ([6]; 72 h): 4.7 ± 0.3%
- percentage of cells in S ([6]; 72 h): 20.1 ± 2.9^(a) %
- caspase 3/7 activity / apoptosis induction (in words) [7]: did not induce caspase 3/7 activity

SMILES: C[C@@H](O)[C@H]1C(=O)N2C(C(=O)O)=C(S[C@@H]3CN[C@H](C(=O)N(C)C)C3)[C@H](C)[C@H]12 [MER, meropenem]
- effect of combination with 5-FU on the inhibition of metabolic activity induced by 5-FU (in words) [1]: does not affect the inhibition

SMILES: CO/N=C(\C(=O)N[C@@H]1C(=O)N2C(C(=O)[O-])=C(C[N+]3(C)CCCC3)CS[C@H]12)c1csc(N)n1 [CFP, cefepime]
- effect on 5-FU's effect on metabolic activity (in words) ([1]; 48 h post-treatment, CFT 100 µg/mL, CFP 50 µg/mL combined with 5-FU): antagonized 5-FU's effect
- percentage of cells in G0/G1 ([5]; 48 h): 51.7 ± 2.8%
- percentage of cells in G2/M ([5]; 48 h): 24.6 ± 0.9%
- percentage of cells in Pre G1 ([5]; 48 h): 4.9 ± 1.6%
- percentage of cells in S ([5]; 48 h): 13.6 ± 1.6%
- percentage of cells in G0/G1 ([5]; 72 h): 53.8 ± 3.6^(a) %
- percentage of cells in G2/M ([5]; 72 h): 23.6 ± 2.2^(a) %
- percentage of cells in Pre G1 ([5]; 72 h): 9.8% and 9.3 ± 2.9^(a) %
- percentage of cells in S ([5]; 72 h): 7.4 ± 1.4%
- percentage of cells in G0/G1 ([6]; 48 h): 48.8 ± 4.0%
- percentage of cells in G2/M ([6]; 48 h): 18.4 ± 4.3%
- percentage of cells in Pre G1 ([6]; 48 h): 2.6 ± 0.3%
- percentage of cells in S ([6]; 48 h): 29.2 ± 8.1%
- percentage of cells in G0/G1 ([6]; 72 h): 59.6 ± 3.6^(a) %
- percentage of cells in G2/M ([6]; 72 h): 17.0 ± 3.5%
- percentage of cells in Pre G1 ([6]; 72 h): 9.5 ± 4.1^(a) %
- percentage of cells in S ([6]; 72 h): 13.1 ± 3.3^(a) %
- effect on 5-FU-induced apoptosis (caspase 3/7, in words) [8]: effect was seen only 72h post-treatment
- Concentration of CFP, Lysate ([9]; 2 h): 0.012 ± 0.005
- Concentration of CFP, Supernatant ([9]; 2 h): 50.000 ± 1.697
- Concentration of CFP, Lysate ([9]; 4 h): 0.010 ± 0.0002
- Concentration of CFP, Supernatant ([9]; 4 h): 54.187 ± 0.849
- Concentration of CFP, Lysate ([9]; 6 h): 0.014 ± 0.0001
- Concentration of CFP, Supernatant ([9]; 6 h): 45.813 ± 3.818
- Concentration of CFP, Lysate ([9]; 8 h): 0.012 ± 0.001
- Concentration of CFP, Supernatant ([9]; 8 h): 47.947 ± 12.644
- average uptake by the cells ([9]; up to 8h): around 0.02%
- Concentration of CFP, Lysate ([10]; 2 h): 0.018 ± 0.004
- Concentration of CFP, Supernatant ([10]; 2 h): 44.1 and 44.100 ± 3.395
- Concentration of CFP, Lysate ([10]; 4 h): 0.022 ± 0.005
- Concentration of CFP, Supernatant ([10]; 4 h): 34.500 ± 3.818
- Concentration of CFP, Lysate ([10]; 6 h): 0.050 ± 0.003
- Concentration of CFP, Supernatant ([10]; 6 h): 35.250 ± 1.485
- Concentration of CFP, Lysate ([10]; 8 h): 0.032 ± 0.002
- Concentration of CFP, Supernatant ([10]; 8 h): 35.9 and 35.850 ± 1.909
- average uptake in HCT-116 cells compared to DLD-1 cells ([10]; up to 8h): 2 folds
- Stability test, level in media ([11]; 2h in media): 49.9 ± 9.5
- Stability test, level in media ([11]; 8h in media): 48.8 ± 5.3

SMILES: CC1(C)S[C@@H]2[C@H](NC(=O)[C@H](N)c3ccccc3)C(=O)N2[C@H]1C(=O)O [AMP, ampicillin]
- effect of combination with 5-FU on the inhibition of metabolic activity induced by 5-FU (in words) [1]: does not affect the inhibition

SMILES: CC1(C)S[C@@H]2[C@H](NC(=O)Cc3ccccc3)C(=O)N2[C@H]1C(=O)O [BenP, benzylpenicillin]
- effect of combination with 5-FU on the inhibition of metabolic activity induced by 5-FU (in words) [1]: does not affect the inhibition

SMILES: CCN1CCN(C(=O)N[C@@H](C(=O)N[C@@H]2C(=O)N3[C@@H]2SC(C)(C)[C@@H]3C(=O)O)c2ccccc2)C(=O)C1=O [PIP, piperacillin]
- effect of combination with 5-FU on the inhibition of metabolic activity induced by 5-FU (in words) [1]: does not affect the inhibition
